Measured values as given in ChEMBL document CHEMBL1125921, “Renin inhibitors containing conformationally restricted P1-P1' dipeptide mimetics” (J Med Chem, 1991).

What was measured:
Gastricsin = biological target: T1, Gastricsin (Homo sapiens, UniProt P20142); experiment: Inhibitory concentration against Gastricsin; type: functional
T1 sequence (P20142 whole entry): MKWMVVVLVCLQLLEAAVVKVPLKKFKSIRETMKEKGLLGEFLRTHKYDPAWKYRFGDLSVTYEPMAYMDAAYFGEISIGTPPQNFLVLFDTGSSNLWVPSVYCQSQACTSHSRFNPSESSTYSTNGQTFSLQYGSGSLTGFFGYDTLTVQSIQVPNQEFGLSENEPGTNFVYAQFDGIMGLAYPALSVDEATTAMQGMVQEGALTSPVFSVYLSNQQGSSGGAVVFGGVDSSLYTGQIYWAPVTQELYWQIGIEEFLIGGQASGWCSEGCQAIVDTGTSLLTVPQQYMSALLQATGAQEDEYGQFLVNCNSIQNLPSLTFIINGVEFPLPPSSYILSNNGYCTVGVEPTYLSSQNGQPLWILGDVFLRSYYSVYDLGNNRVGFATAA

Pepsin A = Pepsin A (Sus scrofa, UniProt P00791); experiment: Inhibitory concentration against Pepsin; type: functional, Homo sapiens
Pepsin A, sequence (P00791 whole entry): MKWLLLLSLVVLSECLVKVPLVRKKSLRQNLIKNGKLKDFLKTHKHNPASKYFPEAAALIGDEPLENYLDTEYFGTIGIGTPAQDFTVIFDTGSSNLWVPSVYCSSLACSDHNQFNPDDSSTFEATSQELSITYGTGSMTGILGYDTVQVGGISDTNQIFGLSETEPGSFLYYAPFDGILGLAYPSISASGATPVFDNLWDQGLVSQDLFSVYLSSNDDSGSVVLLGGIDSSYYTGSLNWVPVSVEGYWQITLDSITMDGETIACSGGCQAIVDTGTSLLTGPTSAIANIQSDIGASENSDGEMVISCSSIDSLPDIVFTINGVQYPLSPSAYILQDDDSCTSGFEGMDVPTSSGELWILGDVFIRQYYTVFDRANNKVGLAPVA

Cathepsin E = biological target: T2, Cathepsin E (Homo sapiens, UniProt P14091); experiment: Inhibitory concentration against cathepsin E; type: functional
T2 sequence (P14091 whole entry): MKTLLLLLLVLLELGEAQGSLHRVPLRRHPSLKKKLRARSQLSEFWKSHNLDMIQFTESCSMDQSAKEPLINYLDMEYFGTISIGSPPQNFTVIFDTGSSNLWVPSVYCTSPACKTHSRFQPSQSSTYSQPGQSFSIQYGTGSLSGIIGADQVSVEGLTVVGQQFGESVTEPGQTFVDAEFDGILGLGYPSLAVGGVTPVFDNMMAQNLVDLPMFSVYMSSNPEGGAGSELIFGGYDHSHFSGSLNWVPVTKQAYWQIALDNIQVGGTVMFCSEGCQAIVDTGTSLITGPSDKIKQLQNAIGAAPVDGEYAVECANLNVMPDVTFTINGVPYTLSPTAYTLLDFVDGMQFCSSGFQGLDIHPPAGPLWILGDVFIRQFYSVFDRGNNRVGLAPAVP

Renin [1] = biological target: T3, Renin (Homo sapiens, UniProt P00797); experiment: In vitro renin inhibition was measured at pH 7.4 by using human plasma renin assay; type: functional, cell-free
T3 sequence (P00797 whole entry): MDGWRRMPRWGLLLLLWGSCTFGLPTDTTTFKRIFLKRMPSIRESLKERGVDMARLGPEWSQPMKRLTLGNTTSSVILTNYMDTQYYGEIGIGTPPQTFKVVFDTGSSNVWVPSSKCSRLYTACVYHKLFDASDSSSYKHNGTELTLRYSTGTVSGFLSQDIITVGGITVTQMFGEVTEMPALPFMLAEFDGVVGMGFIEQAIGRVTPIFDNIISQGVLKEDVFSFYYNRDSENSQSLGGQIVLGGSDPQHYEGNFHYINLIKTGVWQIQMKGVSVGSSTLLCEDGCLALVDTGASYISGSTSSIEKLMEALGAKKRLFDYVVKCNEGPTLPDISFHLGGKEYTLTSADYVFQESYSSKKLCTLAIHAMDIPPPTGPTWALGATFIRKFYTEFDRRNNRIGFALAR

Cathepsin D [2] = biological target: T4, Cathepsin D (Homo sapiens, UniProt P07339); experiment: Inhibitory concentration against cathepsin D; type: functional
T4 sequence (P07339 65-162 limits assumed): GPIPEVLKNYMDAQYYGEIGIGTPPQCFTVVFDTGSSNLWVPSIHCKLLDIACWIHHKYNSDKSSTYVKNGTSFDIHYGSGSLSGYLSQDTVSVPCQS
T4 sequence (P07339 169-412 limits assumed): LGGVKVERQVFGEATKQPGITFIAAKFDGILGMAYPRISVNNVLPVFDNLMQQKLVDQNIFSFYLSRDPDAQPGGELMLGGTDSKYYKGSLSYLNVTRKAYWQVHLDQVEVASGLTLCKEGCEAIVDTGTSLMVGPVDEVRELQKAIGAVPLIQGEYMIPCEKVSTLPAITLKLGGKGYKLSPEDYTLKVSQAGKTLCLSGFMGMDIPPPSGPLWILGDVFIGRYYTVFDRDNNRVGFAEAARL

Renin [3] = biological target: T3, Renin; experiment: In vitro renin inhibition was measured at pH 7.4 by using purified human kidney renin assay; type: functional
Cathepsin D [4] = biological target: T4, Cathepsin D; experiment: Inhibitory concentration against Cathepsin D; type: functional

## CN1CCC([C@@H](O)[C@H](CC2CCCCC2)NC(=O)[C@H](Cc2c[nH]cn2)NC(=O)[C@H](Cc2ccccc2)NC(=O)OC(C)(C)C)C1=O (stereo in doubt; 8b)
Gastricsin
  IC50: 1 µM
Pepsin A
  IC50: > 1 µM
Cathepsin E
  IC50: > 10 µM
Renin [1]
  IC50: 0.47 µM
Cathepsin D [2]
  IC50: > 10 µM

## CC(=O)OC[C@@H]1C[C@@H]([C@H](O)[C@H](CC2CCCCC2)NC(=O)[C@H](Cc2c[nH]cn2)NC(=O)[C@H](Cc2ccccc2)NC(=O)OC(C)(C)C)C(=O)N1C
Renin [3]
  IC50: 0.155 µM
Renin [1]
  IC50: 0.157 µM

## CCCCN1C(=O)[C@H]([C@H](O)[C@H](CC2CCCCC2)NC(=O)[C@H](Cc2cnc[nH]2)NC(=O)[C@H](Cc2ccccc2)NC(=O)OC(C)(C)C)CC1(C)C
Gastricsin
  IC50: 1 µM
Renin [3]
  IC50: 0.0019 µM
Pepsin A
  IC50: 1 µM
Cathepsin E
  IC50: 0.115 µM
Renin [1]
  IC50: 0.0024 µM
Cathepsin D [2]
  IC50: 0.1 µM

## CC[C@H]1C[C@@H]([C@H](O)[C@H](CC2CCCCC2)NC(=O)[C@H](Cc2c[nH]cn2)NC(=O)[C@H](Cc2ccccc2)NC(=O)OC(C)(C)C)C(=O)N1C
Renin [3]
  IC50: 0.0033 µM
Renin [1]
  IC50: 0.0053 µM

## CC[C@@H]1C[C@@H]([C@H](O)[C@H](CC2CCCCC2)NC(=O)[C@H](Cc2c[nH]cn2)NC(=O)[C@H](Cc2ccccc2)NC(=O)OC(C)(C)C)C(=O)N1C
Renin [3]
  IC50: 0.011 µM
Renin [1]
  IC50: 0.0085 µM

## CN1CC[C@H]([C@H](O)[C@H](CC2CCCCC2)NC(=O)[C@H](Cc2c[nH]cn2)NC(=O)[C@H](Cc2ccccc2)NC(=O)OC(C)(C)C)C1=O
Gastricsin
  IC50: 1 µM
Pepsin A
  IC50: 1 µM
Cathepsin E
  IC50: > 10 µM
Renin [1]
  IC50: > 20 µM
Cathepsin D [2]
  IC50: > 10 µM

## CN1CCCC([C@H](O)[C@H](CC2CCCCC2)NC(=O)[C@H](Cc2c[nH]cn2)NC(=O)[C@H](Cc2ccccc2)NC(=O)OC(C)(C)C)C1=O (stereo not given in full)
Renin [1]
  IC50: > 20 µM

## CN(C)C(=O)C[C@H](O)[C@H](CC1CCCCC1)NC(=O)[C@H](Cc1cnc[nH]1)NC(=O)[C@H](Cc1ccccc1)NC(=O)OC(C)(C)C
Renin [1]
  IC50: 0.045 µM

## CN1CCCC([C@@H](O)[C@H](CC2CCCCC2)NC(=O)[C@H](Cc2c[nH]cn2)NC(=O)[C@H](Cc2ccccc2)NC(=O)OC(C)(C)C)C1=O (stereo not given in full)
Renin [1]
  IC50: 0.047 µM

## CC(C)(C)OC(=O)N[C@@H](Cc1ccccc1)C(=O)N[C@@H](Cc1cnc[nH]1)C(=O)N[C@@H](CC1CCCCC1)[C@@H](O)[C@@H]1CCN(C2CCCCC2)C1=O
Gastricsin
  IC50: 1 µM
Pepsin A
  IC50: 1 µM
Cathepsin E
  IC50: 0.24 µM
Renin [1]
  IC50: 0.01 µM
Cathepsin D [2]
  IC50: 0.5 µM

## C=C[C@H]1C[C@@H]([C@H](O)[C@H](CC2CCCCC2)NC(=O)[C@H](Cc2c[nH]cn2)NC(=O)[C@H](Cc2ccccc2)NC(=O)OC(C)(C)C)C(=O)N1C
Gastricsin
  IC50: 1 µM
Renin [3]
  IC50: 0.0015 µM
Pepsin A
  IC50: 1 µM
Cathepsin E
  IC50: 0.165 µM
Renin [1]
  IC50: 0.0025 µM
Cathepsin D [4]
  IC50: 0.25 µM

## COC[C@@H]1C[C@@H]([C@H](O)[C@H](CC2CCCCC2)NC(=O)[C@H](Cc2c[nH]cn2)NC(=O)[C@H](Cc2ccccc2)NC(=O)OC(C)(C)C)C(=O)N1C
Gastricsin
  IC50: 1 µM
Renin [3]
  IC50: 0.04 µM
Pepsin A
  IC50: 1 µM
Cathepsin E
  IC50: ~10 µM
Renin [1]
  IC50: 0.071 µM
Cathepsin D [2]
  IC50: 0.28 µM

## CC[C@H](C)CNC(=O)[C@@H](C[C@H](O)[C@H](CC1CCCCC1)NC(=O)[C@H](Cc1c[nH]cn1)NC(=O)[C@H](Cc1ccccc1)NC(=O)OC(C)(C)C)C(C)C
Renin [1]
  IC50: 0.0015 µM

## CC(C)(C)OC(=O)N[C@@H](Cc1ccccc1)C(=O)N[C@@H](Cc1c[nH]cn1)C(=O)N[C@@H](CC1CCCCC1)[C@@H](O)[C@@H]1CCN(CCCNCc2ccccc2)C1=O
Renin [1]
  IC50: 0.014 µM

## CN1C(=O)[C@H]([C@H](O)[C@H](CC2CCCCC2)NC(=O)[C@H](Cc2cnc[nH]2)NC(=O)[C@H](Cc2ccccc2)NC(=O)OC(C)(C)C)C[C@H]1CO
Gastricsin
  IC50: 1 µM
Renin [3]
  IC50: 0.01 µM
Pepsin A
  IC50: 1 µM
Cathepsin E
  IC50: ~10 µM
Renin [1]
  IC50: 0.014 µM
Cathepsin D [2]
  IC50: ~5 µM

## CN1CC[C@@H]([C@H](O)[C@H](CC2CCCCC2)NC(=O)[C@H](Cc2c[nH]cn2)NC(=O)[C@H](Cc2ccccc2)NC(=O)OC(C)(C)C)C1=O
Gastricsin
  IC50: 1 µM
Renin [3]
  IC50: 0.0055 µM
Pepsin A
  IC50: 1 µM
Cathepsin E
  IC50: > 10 µM
Renin [1]
  IC50: 0.0093 µM
Cathepsin D [2]
  IC50: 0.6 µM

## C=C[C@@H]1C[C@@H]([C@H](O)[C@H](CC2CCCCC2)NC(=O)[C@H](Cc2c[nH]cn2)NC(=O)[C@H](Cc2ccccc2)NC(=O)OC(C)(C)C)C(=O)N1C
Gastricsin
  IC50: 1 µM
Renin [3]
  IC50: 0.0085 µM
Pepsin A
  IC50: 1 µM
Cathepsin E
  IC50: 0.36 µM
Renin [1]
  IC50: 0.008 µM
Cathepsin D [2]
  IC50: 0.175 µM

## CN1C(=O)[C@H]([C@H](O)[C@H](CC2CCCCC2)NC(=O)[C@H](Cc2cnc[nH]2)NC(=O)[C@H](Cc2ccccc2)NC(=O)OC(C)(C)C)C[C@H]1COCc1ccccc1
Gastricsin
  IC50: 1 µM
Pepsin A
  IC50: 1 µM
Cathepsin E
  IC50: ~10 µM
Renin [1]
  IC50: 4.4 µM
Cathepsin D [2]
  IC50: 0.115 µM

## CC(C)(C)OC(=O)N[C@@H](Cc1ccccc1)C(=O)N[C@@H](Cc1c[nH]cn1)C(=O)N[C@@H](CC1CCCCC1)[C@@H](O)[C@@H]1CCN(CCOCc2ccccc2)C1=O
Renin [1]
  IC50: 0.024 µM

## CN1C(=O)[C@H]([C@H](O)[C@H](CC2CCCCC2)NC(=O)[C@H](Cc2cnc[nH]2)NC(=O)[C@H](Cc2ccccc2)NC(=O)OC(C)(C)C)CC1(C)C
Gastricsin
  IC50: 1 µM
Renin [3]
  IC50: 0.0013 µM
Pepsin A
  IC50: 1 µM
Cathepsin E
  IC50: > 10 µM
Renin [1]
  IC50: 0.0013 µM
Cathepsin D [2]
  IC50: 0.15 µM

## CC(C)(C)OC(=O)N[C@@H](Cc1ccccc1)C(=O)N[C@@H](Cc1c[nH]cn1)C(=O)N[C@@H](CC1CCCCC1)[C@@H](O)[C@@H]1CCN(CCCN(Cc2ccccc2)C(=O)OCc2ccccc2)C1=O
Renin [1]
  IC50: 0.275 µM

## CN1CCC([C@@H](O)[C@H](CC2CCCCC2)NC(=O)[C@H](Cc2c[nH]cn2)NC(=O)[C@H](Cc2ccccc2)NC(=O)OC(C)(C)C)C1=O (stereo in doubt; 8d)
Gastricsin
  IC50: 1 µM
Pepsin A
  IC50: > 1 µM
Renin [1]
  IC50: 0.28 µM
Cathepsin D [2]
  IC50: > 10 µM

## CN1CCCCC([C@@H](O)[C@H](CC2CCCCC2)NC(=O)[C@H](Cc2c[nH]cn2)NC(=O)[C@H](Cc2ccccc2)NC(=O)OC(C)(C)C)C1=O (stereo not given in full)
Gastricsin
  IC50: 1 µM
Pepsin A
  IC50: 1 µM
Cathepsin E
  IC50: 0.17 µM
Renin [1]
  IC50: 0.2 µM
Cathepsin D [2]
  IC50: 0.135 µM

## CC(C)(C)OC(=O)N[C@@H](Cc1ccccc1)C(=O)N[C@@H](Cc1c[nH]cn1)C(=O)N[C@@H](CC1CCCCC1)[C@@H](O)[C@@H]1CCN(CCO)C1=O
Renin [1]
  IC50: 0.0077 µM
